Test results as given in the NIST ThermoML archive (doi:10.1021/acs.jced.5b00367).
Where “and” joins values, the source holds several entries; their conditions need not be identical. Equal entries are not always repeated. ± gives the expanded uncertainty stated by the source.

Assay: wn = mass fraction of the nth substance listed
Conditions: 101 kPa, Liquid, Alternating current cell with electrodes, w2 = 0.01

CCCCCCCCCCCC[N+](C)(C)C.[Br-] [dodecyltrimethylammonium bromide] + O
Conditions | electrical conductivity
279.15 K | 0.186 ± 0.074 S/m
279.25 K | 0.186 ± 0.075 S/m
279.35 K | 0.186 ± 0.075 S/m
279.45 K | 0.186 ± 0.074 S/m
279.55 K | 0.186 ± 0.074 S/m
279.65 K | 0.186 ± 0.074 S/m
279.85 K | 0.186 ± 0.074 S/m
279.95 K | 0.186 ± 0.075 S/m
280.05 K | 0.186 ± 0.074 S/m
280.15 K | 0.186 ± 0.074 S/m
280.25 K | 0.186 ± 0.074 S/m
280.35 K | 0.186 ± 0.074 S/m
280.45 K | 0.186 ± 0.074 S/m
280.55 K | 0.186 ± 0.074 S/m
280.65 K | 0.186 ± 0.074 S/m
280.75 K | 0.185 ± 0.074 S/m
280.85 K | 0.185 ± 0.074 S/m
280.95 K | 0.185 ± 0.074 S/m
281.05 K | 0.185 ± 0.074 S/m
281.15 K | 0.185 ± 0.074 S/m
281.25 K | 0.185 ± 0.074 S/m
281.35 K | 0.185 ± 0.074 S/m
281.45 K | 0.185 ± 0.074 S/m
281.55 K | 0.185 ± 0.074 S/m
281.65 K | 0.185 ± 0.074 S/m
281.85 K | 0.185 ± 0.074 S/m
281.95 K | 0.185 ± 0.074 S/m
282.05 K | 0.185 ± 0.074 S/m
282.15 K | 0.185 ± 0.074 S/m
282.25 K | 0.185 ± 0.074 S/m
282.35 K | 0.184 ± 0.074 S/m
282.45 K | 0.184 ± 0.074 S/m
282.55 K | 0.184 ± 0.074 S/m
282.65 K | 0.184 ± 0.074 S/m
282.75 K | 0.184 ± 0.074 S/m
282.85 K | 0.184 ± 0.074 S/m
282.95 K | 0.184 ± 0.074 S/m
283.05 K | 0.184 ± 0.074 S/m
283.15 K | 0.184 ± 0.074 S/m
283.25 K | 0.184 ± 0.074 S/m
283.35 K | 0.184 ± 0.074 S/m
283.45 K | 0.184 ± 0.073 S/m
283.55 K | 0.184 ± 0.074 S/m
283.65 K | 0.184 ± 0.073 S/m
283.75 K | 0.184 ± 0.073 S/m
283.85 K | 0.184 ± 0.073 S/m
283.95 K | 0.184 ± 0.073 S/m
284.05 K | 0.183 S/m and 0.184 S/m
284.15 K | 0.184 ± 0.073 S/m
284.25 K | 0.183 ± 0.073 S/m
284.35 K | 0.183 ± 0.073 S/m
284.45 K | 0.183 ± 0.073 S/m
284.55 K | 0.183 ± 0.073 S/m
284.65 K | 0.183 ± 0.073 S/m
284.75 K | 0.183 ± 0.073 S/m
284.85 K | 0.183 ± 0.073 S/m
284.95 K | 0.183 ± 0.073 S/m
285.05 K | 0.183 ± 0.073 S/m
285.15 K | 0.183 ± 0.073 S/m
288.05 K | 0.182 ± 0.073 S/m
288.15 K | 0.182 ± 0.073 S/m
288.25 K | 0.182 ± 0.073 S/m
288.35 K | 0.182 ± 0.073 S/m
288.45 K | 0.182 ± 0.073 S/m
288.55 K | 0.182 ± 0.073 S/m
288.65 K | 0.182 ± 0.073 S/m
288.75 K | 0.182 ± 0.073 S/m
288.85 K | 0.182 ± 0.073 S/m
288.95 K | 0.182 ± 0.073 S/m
289.85 K | 0.183 ± 0.073 S/m
289.95 K | 0.183 ± 0.073 S/m
290.05 K | 0.183 ± 0.073 S/m
290.15 K | 0.183 ± 0.073 S/m
290.25 K | 0.183 ± 0.073 S/m
290.35 K | 0.183 ± 0.073 S/m
290.45 K | 0.183 ± 0.073 S/m
290.55 K | 0.183 ± 0.073 S/m
290.65 K | 0.183 ± 0.073 S/m
290.75 K | 0.183 ± 0.073 S/m
290.85 K | 0.183 ± 0.073 S/m
290.95 K | 0.183 ± 0.073 S/m
291.05 K | 0.183 ± 0.073 S/m
291.15 K | 0.183 ± 0.073 S/m
291.25 K | 0.183 ± 0.073 S/m
291.35 K | 0.183 ± 0.073 S/m
291.45 K | 0.183 ± 0.073 S/m
291.55 K | 0.183 ± 0.073 S/m
291.65 K | 0.183 ± 0.073 S/m
291.75 K | 0.183 ± 0.073 S/m
291.85 K | 0.183 ± 0.073 S/m
292.15 K | 0.183 ± 0.073 S/m
292.25 K | 0.183 ± 0.073 S/m
292.65 K | 0.183 ± 0.073 S/m
292.75 K | 0.183 ± 0.073 S/m
292.85 K | 0.183 ± 0.073 S/m
292.95 K | 0.184 ± 0.073 S/m
293.05 K | 0.184 ± 0.073 S/m
293.15 K | 0.184 ± 0.073 S/m
293.25 K | 0.184 ± 0.074 S/m
294.25 K | 0.184 ± 0.074 S/m
294.35 K | 0.184 ± 0.074 S/m
294.45 K | 0.184 ± 0.074 S/m
294.55 K | 0.184 ± 0.074 S/m
294.75 K | 0.184 ± 0.074 S/m
294.85 K | 0.185 ± 0.074 S/m
294.95 K | 0.185 ± 0.074 S/m
295.15 K | 0.185 ± 0.074 S/m
295.25 K | 0.185 ± 0.074 S/m
295.45 K | 0.185 ± 0.074 S/m
295.65 K | 0.185 ± 0.074 S/m
295.75 K | 0.185 ± 0.074 S/m
296.05 K | 0.185 ± 0.074 S/m
296.15 K | 0.185 ± 0.074 S/m
296.55 K | 0.185 ± 0.074 S/m
296.85 K | 0.186 ± 0.074 S/m
297.05 K | 0.186 ± 0.074 S/m
297.25 K | 0.186 ± 0.074 S/m
297.45 K | 0.186 ± 0.074 S/m
297.65 K | 0.186 ± 0.074 S/m
297.85 K | 0.186 ± 0.075 S/m
298.15 K | 0.186 ± 0.075 S/m
298.65 K | 0.187 ± 0.075 S/m
298.85 K | 0.187 ± 0.075 S/m
299.05 K | 0.187 ± 0.075 S/m
299.25 K | 0.188 ± 0.075 S/m
299.55 K | 0.188 ± 0.075 S/m
299.75 K | 0.188 ± 0.075 S/m
299.85 K | 0.188 ± 0.075 S/m
300.05 K | 0.188 ± 0.075 S/m
300.25 K | 0.188 ± 0.075 S/m
300.45 K | 0.188 ± 0.075 S/m
300.75 K | 0.189 ± 0.075 S/m
301.05 K | 0.189 ± 0.076 S/m
301.55 K | 0.189 ± 0.076 S/m
301.75 K | 0.189 ± 0.076 S/m
301.95 K | 0.19 ± 0.076 S/m
302.25 K | 0.19 ± 0.076 S/m
302.55 K | 0.19 ± 0.076 S/m
302.75 K | 0.19 ± 0.076 S/m
302.95 K | 0.191 ± 0.076 S/m
303.25 K | 0.191 ± 0.076 S/m
303.65 K | 0.191 ± 0.076 S/m
303.85 K | 0.191 ± 0.076 S/m
304.15 K | 0.192 ± 0.077 S/m
305.45 K | 0.193 ± 0.077 S/m
306.15 K | 0.194 ± 0.078 S/m
306.45 K | 0.194 ± 0.078 S/m
306.75 K | 0.194 ± 0.078 S/m
307.05 K | 0.195 ± 0.078 S/m
307.85 K | 0.195 ± 0.078 S/m
308.15 K | 0.196 ± 0.078 S/m
308.45 K | 0.196 ± 0.079 S/m
308.75 K | 0.196 ± 0.079 S/m
309.35 K | 0.197 ± 0.079 S/m
309.55 K | 0.197 ± 0.079 S/m
309.85 K | 0.198 ± 0.079 S/m
310.05 K | 0.198 ± 0.079 S/m
310.35 K | 0.199 ± 0.079 S/m
310.65 K | 0.199 ± 0.08 S/m
310.95 K | 0.199 ± 0.08 S/m
311.35 K | 0.199 ± 0.08 S/m
